Laboratory results from the METLIN SMRT retention time set (Domingo-Almenara et al. 2019).

Assay: gradient 5% acetonitrile 3 min, to 50% in 2 min, to 85% in 15 min, held 3 min, 100 µL/min
Settings: column: Zorbax Extend-C18 2.1 x 50 mm; eluents: water / acetonitrile, 0.1% formic acid
In short: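 Data were gathered over 3 months by HPLC coupled to a quadrupole time-of-flight mass spectrometer, operated in positive and negative ionization mode. Mixtures of ~100 pure standards ran on a Zorbax Extend-C18 column (2.1 × 50 mm, 1.8 μm) at 100 μL/min, with water and acetonitrile each containing 0.1% formic acid and dead and dwell volumes of 40 μL and 900 μL. Retention time was read from adduct peaks picked by computer and checked manually.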

SMILES	RP-LC retention time [s]
O=C(NCC1CCN(C(=O)Nc2ccc(F)cc2)CC1)c1ccccc1Cl	713
COc1cccc(N2CCN(C(=O)C3CCN(c4cncnc4N(C)C)CC3)CC2)c1	648
O=C(CNC(=O)c1cccc(Br)c1)NCc1cscn1	652
CCOC(=O)c1[nH]c(C)c(C(=O)N2CCC(CC(=O)N3CCCCCC3)CC2)c1C	739
CCOC(=O)C1CCc2sc(NC(=O)c3n[nH]c4ccccc34)nc21 (configuration not stated)	852
O=C(NCc1ccc(Cl)cc1)C1=C2CCCN2c2ccc(F)cc2S1(=O)=O	941
CNc1oc(-c2ccco2)nc1S(=O)(=O)c1ccc(F)cc1	809
COc1ccccc1CNS(=O)(=O)c1cc2c(s1)CCN(C(=O)C1CCC1)C2	877
COc1ccc(CC(=O)N2C[C@@H]3C[C@H](NC(=O)c4ccccc4)[C@H]2C3)cc1Cl	794
O=C(NCc1ccc(OC(F)(F)F)cc1)C1CCCN(c2nnc3ccccn23)C1 (configuration not stated)	727
COc1ccccc1NC(=O)NC(C)(C)CC(C)(C)C	1010
COc1ccc(C(=O)N2CCC(COc3ccc(C(=O)NC4CC4)cc3)CC2)cc1F	798
CCC(=O)N1CCc2cc(N3CC(C(=O)NC4CCCC4)CC3=O)ccc21 (configuration not stated)	686
O=c1[nH]c2ccc(NCc3ccccc3)cc2[nH]1	571
COc1ccc(NC(=O)C2CC(=O)N(c3n[nH]c4cccc(F)c34)C2)cc1 (configuration not stated)	717
CC(Cc1cc2c(c(C(N)=O)c1)N(CCCO)CC2)NCCOc1ccccc1OCC(F)(F)F (configuration not stated)	654
Cn1c(N2CCN(C(=O)c3cc4ccccc4[nH]3)CC2)cc(=O)n(C)c1=O	691
O=C(O)C1CCN(c2nc3ccc(-c4cccs4)nc3s2)CC1	837
O=C(O)c1cccc2c1CCN2S(=O)(=O)c1ccccc1	793
CC(=O)N1CCN(c2nc3c(s2)CC(C(=O)Nc2cccc(Cl)c2)CC3)CC1 (configuration not stated)	628
COc1cc2c(cc1OC)C1C(C(=O)NCc3ccc4c(c3)OCO4)c3ccccc3C(=O)N1CC2 (configuration not stated)	753
Cn1c(C2CCN(C(=O)Nc3ccc(F)cc3F)CC2)cc(=O)n2nccc12	647
COc1ccc(-c2nnc(-c3cccc(S(=O)(=O)N4CCCC4)c3)o2)cc1OC	885

SMILES	RP-LC retention time [s]
COc1ccccc1NC(=O)NC1CCCC(OC(=O)Nc2ccc(F)cc2)C1 (configuration not stated)	883
COc1ccc(C2=NC(c3ccc(Cl)cc3)C(c3ccc(Cl)cc3)N2C(=O)N2CCNC(=O)C2)c(OC(C)C)c1 (configuration not stated)	887
COc1ccc(NC(=O)NC(C)C(=O)N2CCc3ccccc32)c(OC)c1 (configuration not stated)	859
COc1ccc(N2CCN(C(CNC(=O)C(=O)Nc3ccon3)c3ccco3)CC2)cc1 (configuration not stated)	591
Cc1oc2c(C)c3oc(=O)c(CCC(=O)N4CCN(c5ccccn5)CC4)c(C)c3cc2c1C	728
O=C(NCC1CCCO1)C1CCCN(c2ncccc2-c2noc(C3CCC3)n2)C1 (configuration not stated)	770
c1ccc(-c2noc(-c3ccccc3OC3CNC3)n2)cc1	679
CCc1onc(C)c1C1CCCN1C(=O)Nc1ccc(OC)c(OC)c1 (configuration not stated)	796
C#Cc1cccc(Nc2ncnc3cc(OC)c(OCCCCCCC(=O)NO)cc23)c1	707
CCOc1ccc(N2CC(NC(=O)N3CCN(C(=O)c4ccco4)CC3)CC2=O)cc1 (configuration not stated)	632
CCC(C)n1[nH]c(=O)c2c1NC(=O)CSC2c1ccc(OC)c(OC)c1 (configuration not stated)	654
COc1ccc(Nc2ncccc2S(N)(=O)=O)cc1OC	666
Cc1cc(C)cc(NC(=O)C2CCCN2S(=O)(=O)c2cc3c(cc2C)NC(=O)CO3)c1 (configuration not stated)	815
COCCNC(=O)C1CCN(C(=O)c2ncn3c2COC(c2ccc(F)cc2)C3)CC1 (configuration not stated)	645
O=C(OCn1nnc2ccccc2c1=O)c1ccc(S(=O)(=O)N2CCCCC2)cc1	936
Cc1cc(C)n(-c2ccnc(N3CCC(C(=O)NCC4CCCO4)CC3)n2)n1 (configuration not stated)	674
O=C(NC1CCN(Cc2ccccc2)CC1)c1c(OCC2CC2)cc(=O)n2c1CCCCC2	596
O=C(CN1C(=O)CCC1=O)N1CC(c2nc(-c3cccc(C(F)(F)F)c3)no2)C1	754
O=S(=O)(c1ccc(F)cc1)N1CCC2(CC1)NCCN=C2NCc1cccc(F)c1	691
COc1cc2c(cc1OC)C1C(C(=O)Nc3ccc4c(c3)OCCO4)c3ccccc3C(=O)N1CC2 (configuration not stated)	772
Cc1noc(CNC(=O)C2CCN(C(=O)CSc3nc4ccccc4s3)CC2)n1	665
Cc1cc(Cl)ccc1NS(=O)(=O)c1cc2c(s1)CCN(C(=O)C1CC1)C2	923

Other lines, results leading:

RP-LC retention time [s]	SMILES
668	Cc1ccc(C)c(NC(=O)C2CCCN(c3cn[nH]c(=O)c3)C2)c1 (configuration not stated)
786	CCc1ccc(NC(=O)Cn2c(=O)c3cc(C)nn3c3ncccc32)cc1
1320	COc1ccc(-c2csc(NC(=O)c3sc(COc4ccc(Cl)c(C)c4)nc3C)n2)cc1
1010	Cc1ccc2c(c1)N(Cc1ccccc1)N=C(C(=O)N1CCCCC1)S2(=O)=O
673	COc1ccc(Cl)cc1C(=O)NCc1c(C)nc2sc(C)nn12
797	CCc1ccc(S(=O)(=O)Nc2cc(-n3c(C)nc4ccccc4c3=O)ccc2F)s1
763	CCCCNC(=O)Cc1csc(-n2nc(C)c(Cl)c2C)n1
980	CCOc1ccc(N2C(=O)C3N=NN(Cc4nc(-c5ccccc5OCC)no4)C3C2=O)cc1 (configuration not stated)
680	Cc1ccc(C)c(NC(=O)N2CCCC(Cn3c(C4CC4)nc4cccnc43)C2)c1 (configuration not stated)
1160	Cc1ccc(-c2noc(-c3cccc(S(=O)(=O)Nc4cccc(C#N)c4)c3)n2)cc1
838	CCCCOc1ccc(NC(=O)c2cc(=O)c3cc(C)cc(C)c3o2)c2cccnc12
753	Cc1ccc(-c2nc(-c3ccc4c(c3)ncn4CCC(=O)N3CCCC3)no2)s1
988	Cc1ccc(-c2ncc(C(=O)Nc3cc(F)ccc3F)c(-c3ccncc3)n2)cc1
780	Cc1cc(C)n(-c2ccc(=O)n(C(C)C(=O)NCCc3csc(-c4ccccc4)n3)n2)n1 (configuration not stated)
851	COc1cccc(CNc2ncc(C(=O)O)c(C(C)C)n2)c1
1140	COc1cccc(C2Cn3nnc(-c4nc(-c5ccc(OC)c(F)c5)no4)c3CO2)c1 (configuration not stated)
923	Cc1cc(C)cc(NC(=O)C2CC(=O)N(CCc3c[nH]c4ccc(C)cc34)C2)c1 (configuration not stated)
1090	Cc1nc(-c2csc(S(=O)(=O)N3CCC(C(=O)Nc4ccc(C(C)C)cc4)CC3)c2)no1
911	CCOC(=O)c1nc(Nc2cc(OC)ccc2OC)c2ccccc2n1
876	COc1ccc(-c2noc(-c3nn(-c4cccc(OC)c4)ccc3=O)n2)cc1
892	CCc1nnc(-c2ccc3ccn(CC(=O)N4CCN(c5ccccc5F)CC4)c3c2)o1

RP-LC retention time [s]	SMILES
1280	CCOC(=O)c1c(C)oc2nc(C)nc(NCCCc3ccccc3)c12
1300	Cc1ccc(-c2noc(-c3ccccc3S(=O)(=O)NC3CCCC3)n2)cc1
629	Cc1cccn2c(=O)cc(CN(C)Cc3ccc(Cl)cc3)nc12
780	CCN1CCCn2cc(S(=O)(=O)NCc3cccc(C)c3)cc2C1=O
953	COc1ccc(-c2noc(Cn3nc(-c4ccccc4)ccc3=O)n2)cc1
972	O=C(Cn1cnc2c(sc3nc(-c4ccccc4)ccc32)c1=O)NC1CCCCC1
763	O=C(NCc1cc(F)cc(F)c1)c1cn(-c2ccc(NC(=O)C3CC3)cn2)cn1
956	CCCN(C)C(=O)c1cn2ccnc(-c3ccc(C)cc3)c2n1
1070	CCCn1cc(C2=CCN(S(=O)(=O)Cc3ccccc3)CC2)c2cccnc21
574	CC(=O)Nc1cc(C(=O)NCC(C)C)c2ccc(C)nc2c1
750	CCCCN(C)C(=O)C1CCCN(c2ccc(-c3ccc(C)cc3)nn2)C1 (configuration not stated)
1150	Cc1ccc(Sc2nccnc2N2CCCC(C(=O)Nc3ccc(C)cc3C)C2)cc1 (configuration not stated)
857	CCCN(CC1CCOC1)C(=O)Nc1ccc(C)c(F)c1 (configuration not stated)
666	O=C(Cc1c[nH]c2ncccc12)NCc1ccc(Br)cc1
990	CCOc1ccc(NC(=O)Cn2cccc2-c2nnc(-c3ccccc3)o2)cc1
876	Cc1nn2c(CNS(=O)(=O)Cc3ccccc3)c(-c3ccccc3)nc2s1
786	CCCn1ccc2oc(C)c(C(=O)NCc3ccc(C(C)C)cc3)c2c1=O
800	CCCCc1ccc(NC(=O)CSc2ccc(N3CCCC(C(=O)NC4CC4)C3)nn2)cc1 (configuration not stated)
1150	CCCc1nc(-c2ccccc2)oc1CC(=O)Nc1ccc(Br)cc1F
742	CCn1cnc2ccc(-c3noc(COc4ccccc4)n3)cc21
799	CCc1ccc(OCC(=O)Nc2nnc(C3CC(=O)N(c4ccccc4)C3)o2)cc1 (configuration not stated)
